Source: publication PMC5385555, “Molecular basis for the behavioral effects of the odorant degrading enzyme Esterase 6 in Drosophila” (Scientific Reports, 2017)

Molecular target: T1, LUSH (Drosophila melanogaster, UniProt O02372)
T1 sequence (O02372 30-153): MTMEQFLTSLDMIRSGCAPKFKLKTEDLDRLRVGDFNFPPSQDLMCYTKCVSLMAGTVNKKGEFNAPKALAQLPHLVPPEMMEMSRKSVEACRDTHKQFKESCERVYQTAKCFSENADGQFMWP
Test: fluorescence titration
Type: binding
Settings: read-out: dissociation constant
Experimental: fluorescence titration on LUSH | A saturable NPN fluorescence change was recorded by a fluorometer and the dissociation constant

c1ccc(Nc2cccc3ccccc23)cc1 [N-phenyl-1-naphthylamine]
Kd: 2.39 µM
